Reference: patent US7105312B2, “Ca2+/calmodulin-dependent protein kinase IV” (Duke University, priority 2001, dated 2006)

What was measured:
p38 = p38 activation in neutrophils in response to fMLP or TPA; type: cell-based, mice or humans; settings: in response to either fMLP or TPA
Procedure: (§1) In isolated peripheral neutrophils from normal mice or humans, the responses of neutrophils to stimulation by the chemotactic peptide, fMLP, or by the phorbol ester, PMA, was evaluated. […] It was known that the […], p38, is required for the respiratory burst that follows neutrophil activation. […] BM neutrophils have been isolated from normal and Camk4−/− mice and p38 activation in response to PMA has been evaluated.

[1] = system: isolated peripheral neutrophils; assay: Neutrophil respiratory burst and hydrogen peroxide production after stimulation by fMLP or PMA; type: cell-based; settings: isolated peripheral neutrophils from normal mice or humans
Procedure: as §1

COc1ccc(S(=O)(=O)N(CCO)c2ccccc2CN(C)C/C=C/c2ccc(Cl)cc2)cc1 [KN-93]
p38 activation (p38): prevented
hydrogen peroxide production [1]: completely inhibited
respiratory burst [1]: completely inhibited
